In PubChem BioAssay (NCI):
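1) Cells in 96-well plates. 2) Compound, 48 h, 5 concentrations. 3) Linear interpolation between surrounding doses. 4) Unreached endpoint = highest concentration. GI50 = concentration required for 50% inhibition of growth. At the TGI there is no net growth.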

Experiments:
Assay in all cases: NCI tumour cell line growth inhibition, 48 h
HL-60(TB) leukemia = tested on: HL-60(TB) leukemia
HCT-116 colon = tested on: HCT-116 colon
HT29 colon = tested on: HT29 colon
RPMI-8226 leukemia = tested on: RPMI-8226 leukemia
SF-295 CNS = tested on: SF-295 CNS
NCI-H226 lung = tested on: NCI-H226 lung
NCI-H522 lung = tested on: NCI-H522 lung
A498 renal = tested on: A498 renal
SK-OV-3 ovarian = tested on: SK-OV-3 ovarian
MOLT-4 leukemia = tested on: MOLT-4 leukemia
EKVX NSCLC = tested on: EKVX NSCLC
SF-268 CNS = tested on: SF-268 CNS
HCT-15 colon = tested on: HCT-15 colon
U251 CNS = tested on: U251 CNS
ACHN renal = tested on: ACHN renal
OVCAR-8 ovarian = tested on: OVCAR-8 ovarian
OVCAR-4 ovarian = tested on: OVCAR-4 ovarian
MCF7 breast = tested on: MCF7 breast
T-47D breast = tested on: T-47D breast
K-562 leukemia = tested on: K-562 leukemia
PC-3 prostate = tested on: PC-3 prostate
CCRF-CEM leukemia = tested on: CCRF-CEM leukemia
OVCAR-5 ovarian = tested on: OVCAR-5 ovarian
KM12 colon = tested on: KM12 colon
SK-MEL-28 melanoma = tested on: SK-MEL-28 melanoma
MALME-3M melanoma = tested on: MALME-3M melanoma
MDA-MB-435 = tested on: MDA-MB-435
NCI/ADR-RES ovarian = tested on: NCI/ADR-RES ovarian
SNB-75 CNS = tested on: SNB-75 CNS
NCI-H460 lung = tested on: NCI-H460 lung
SF-539 CNS = tested on: SF-539 CNS
BT-549 breast = tested on: BT-549 breast
SK-MEL-5 melanoma = tested on: SK-MEL-5 melanoma
TK-10 renal = tested on: TK-10 renal
LOX IMVI melanoma = tested on: LOX IMVI melanoma
SR leukemia = tested on: SR leukemia
MDA-MB-231 breast = tested on: MDA-MB-231 breast
HOP-92 NSCLC = tested on: HOP-92 NSCLC
HCC-2998 colon = tested on: HCC-2998 colon
M14 melanoma = tested on: M14 melanoma
UO-31 renal = tested on: UO-31 renal
SK-MEL-2 melanoma = tested on: SK-MEL-2 melanoma
SN12C renal = tested on: SN12C renal
IGROV1 ovarian = tested on: IGROV1 ovarian
DU-145 prostate = tested on: DU-145 prostate
COLO 205 colon = tested on: COLO 205 colon
CAKI-1 renal = tested on: CAKI-1 renal
NCI-H23 lung = tested on: NCI-H23 lung
OVCAR-3 ovarian = tested on: OVCAR-3 ovarian
A549 NSCLC = tested on: A549 NSCLC
HS 578T breast = tested on: HS 578T breast
SW-620 colon = tested on: SW-620 colon
UACC-257 melanoma = tested on: UACC-257 melanoma
SNB-19 CNS = tested on: SNB-19 CNS
786-0 renal = tested on: 786-0 renal
HOP-62 NSCLC = tested on: HOP-62 NSCLC
RXF 393 renal = tested on: RXF 393 renal
MDA-N = tested on: MDA-N
UACC-62 melanoma = tested on: UACC-62 melanoma

Structure (SMILES): C[C@@H](Nc1nc(N[C@H](C)C(F)(F)F)nc(-c2cccc(Cl)n2)n1)C(F)(F)F
- GI50 (HL-60(TB) leukemia): > 100 µM
- TGI (HL-60(TB) leukemia): > 100 µM
- GI50 (HCT-116 colon): 59.4 µM
- TGI (HCT-116 colon): > 100 µM
- GI50 (HT29 colon): > 100 µM
- TGI (HT29 colon): > 100 µM
- GI50 (RPMI-8226 leukemia): > 100 µM
- TGI (RPMI-8226 leukemia): > 100 µM
- GI50 (SF-295 CNS): 35.2 µM
- TGI (SF-295 CNS): > 100 µM
- GI50 (NCI-H226 lung): 35.6 µM
- TGI (NCI-H226 lung): > 100 µM
- GI50 (NCI-H522 lung): 30 µM
- TGI (NCI-H522 lung): > 100 µM
- GI50 (A498 renal): 29.9 µM
- TGI (A498 renal): 99.7 µM
- GI50 (SK-OV-3 ovarian): 37.6 µM
- TGI (SK-OV-3 ovarian): > 100 µM
- GI50 (MOLT-4 leukemia): > 100 µM
- TGI (MOLT-4 leukemia): > 100 µM
- GI50 (EKVX NSCLC): 70.7 µM
- TGI (EKVX NSCLC): > 100 µM
- GI50 (SF-268 CNS): 29.4 µM
- TGI (SF-268 CNS): > 100 µM
- GI50 (HCT-15 colon): > 100 µM
- TGI (HCT-15 colon): > 100 µM
- GI50 (U251 CNS): 20.8 µM
- TGI (U251 CNS): 54 µM
- GI50 (ACHN renal): 36.4 µM
- TGI (ACHN renal): > 100 µM
- GI50 (OVCAR-8 ovarian): 31.3 µM
- TGI (OVCAR-8 ovarian): > 100 µM
- GI50 (OVCAR-4 ovarian): 23.3 µM
- TGI (OVCAR-4 ovarian): 96.9 µM
- GI50 (MCF7 breast): 50.6 µM
- TGI (MCF7 breast): > 100 µM
- GI50 (T-47D breast): 41.8 µM
- TGI (T-47D breast): > 100 µM
- GI50 (K-562 leukemia): > 100 µM
- TGI (K-562 leukemia): > 100 µM
- GI50 (PC-3 prostate): 45.4 µM
- TGI (PC-3 prostate): > 100 µM
- GI50 (CCRF-CEM leukemia): > 100 µM
- TGI (CCRF-CEM leukemia): > 100 µM
- GI50 (OVCAR-5 ovarian): > 100 µM
- TGI (OVCAR-5 ovarian): > 100 µM
- GI50 (KM12 colon): > 100 µM
- TGI (KM12 colon): > 100 µM
- GI50 (SK-MEL-28 melanoma): 72.5 µM
- TGI (SK-MEL-28 melanoma): > 100 µM
- GI50 (MALME-3M melanoma): 60.2 µM
- TGI (MALME-3M melanoma): > 100 µM
- GI50 (MDA-MB-435): > 100 µM
- TGI (MDA-MB-435): > 100 µM
- GI50 (NCI/ADR-RES ovarian): 32.9 µM
- TGI (NCI/ADR-RES ovarian): > 100 µM
- GI50 (SNB-75 CNS): 15.8 µM
- TGI (SNB-75 CNS): 44.3 µM
- GI50 (NCI-H460 lung): 36.1 µM
- TGI (NCI-H460 lung): > 100 µM
- GI50 (SF-539 CNS): 26.5 µM
- TGI (SF-539 CNS): 68.6 µM
- GI50 (BT-549 breast): 37.9 µM
- TGI (BT-549 breast): > 100 µM
- GI50 (SK-MEL-5 melanoma): 51.2 µM
- TGI (SK-MEL-5 melanoma): > 100 µM
- GI50 (TK-10 renal): 39.9 µM
- TGI (TK-10 renal): > 100 µM
- GI50 (LOX IMVI melanoma): 79.8 µM
- TGI (LOX IMVI melanoma): > 100 µM
- GI50 (SR leukemia): > 100 µM
- TGI (SR leukemia): > 100 µM
- GI50 (MDA-MB-231 breast): 26.8 µM
- TGI (MDA-MB-231 breast): > 100 µM
- GI50 (HOP-92 NSCLC): 10.1 µM
- TGI (HOP-92 NSCLC): 63.6 µM
- GI50 (HCC-2998 colon): 66.3 µM
- TGI (HCC-2998 colon): > 100 µM
- GI50 (M14 melanoma): > 100 µM
- TGI (M14 melanoma): > 100 µM
- GI50 (UO-31 renal): 51.3 µM
- TGI (UO-31 renal): > 100 µM
- GI50 (SK-MEL-2 melanoma): 25.6 µM
- TGI (SK-MEL-2 melanoma): > 100 µM
- GI50 (SN12C renal): 46.6 µM
- TGI (SN12C renal): > 100 µM
- GI50 (IGROV1 ovarian): 52.5 µM
- TGI (IGROV1 ovarian): > 100 µM
- GI50 (DU-145 prostate): 41.6 µM
- TGI (DU-145 prostate): > 100 µM
- GI50 (COLO 205 colon): > 100 µM
- TGI (COLO 205 colon): > 100 µM
- GI50 (CAKI-1 renal): 24.9 µM
- TGI (CAKI-1 renal): 96.2 µM
- GI50 (NCI-H23 lung): 54 µM
- TGI (NCI-H23 lung): > 100 µM
- GI50 (OVCAR-3 ovarian): 31.5 µM
- TGI (OVCAR-3 ovarian): > 100 µM
- GI50 (A549 NSCLC): 50.3 µM
- TGI (A549 NSCLC): > 100 µM
- GI50 (HS 578T breast): 26 µM
- TGI (HS 578T breast): > 100 µM
- GI50 (SW-620 colon): > 100 µM
- TGI (SW-620 colon): > 100 µM
- GI50 (UACC-257 melanoma): 51.4 µM
- TGI (UACC-257 melanoma): > 100 µM
- GI50 (SNB-19 CNS): 23.3 µM
- TGI (SNB-19 CNS): 63.5 µM
- GI50 (786-0 renal): 27.4 µM
- TGI (786-0 renal): 91.4 µM
- GI50 (HOP-62 NSCLC): 27.5 µM
- TGI (HOP-62 NSCLC): > 100 µM
- GI50 (RXF 393 renal): 23.2 µM
- TGI (RXF 393 renal): 94.7 µM

Structure (SMILES): CCOC(=O)Cc1c(C)c2ccc(OC(C)=O)c(OC(C)=O)c2oc1=O
- TGI (HCT-116 colon): > 100 µM
- TGI (HT29 colon): 91.3 µM
- TGI (RPMI-8226 leukemia): > 100 µM
- TGI (SF-295 CNS): > 100 µM
- TGI (NCI-H226 lung): 94.3 µM
- TGI (A498 renal): > 100 µM
- TGI (SK-OV-3 ovarian): > 100 µM
- TGI (MOLT-4 leukemia): > 100 µM
- TGI (EKVX NSCLC): > 100 µM
- TGI (SF-268 CNS): 96.1 µM
- TGI (HCT-15 colon): > 100 µM
- TGI (U251 CNS): > 100 µM
- TGI (ACHN renal): > 100 µM
- TGI (OVCAR-8 ovarian): 57.3 µM
- TGI (OVCAR-4 ovarian): 64 µM
- TGI (MCF7 breast): 77.1 µM
- TGI (K-562 leukemia): 71.9 µM
- TGI (PC-3 prostate): > 100 µM
- TGI (CCRF-CEM leukemia): 28.5 µM
- TGI (MDA-N): > 100 µM
- TGI (OVCAR-5 ovarian): > 100 µM
- TGI (KM12 colon): > 100 µM
- TGI (SK-MEL-28 melanoma): > 100 µM
- TGI (MALME-3M melanoma): > 100 µM
- TGI (MDA-MB-435): > 100 µM
- TGI (NCI/ADR-RES ovarian): 58.4 µM
- TGI (SNB-75 CNS): 88.6 µM
- TGI (SK-MEL-5 melanoma): > 100 µM
- TGI (TK-10 renal): 65.2 µM
- TGI (LOX IMVI melanoma): 73.9 µM
- TGI (SR leukemia): 64.4 µM
- TGI (MDA-MB-231 breast): > 100 µM
- TGI (HOP-92 NSCLC): 71.3 µM
- TGI (M14 melanoma): > 100 µM
- TGI (UO-31 renal): 55.8 µM
- TGI (SK-MEL-2 melanoma): > 100 µM
- TGI (SN12C renal): > 100 µM
- TGI (IGROV1 ovarian): 44.3 µM
- TGI (DU-145 prostate): > 100 µM
- TGI (COLO 205 colon): > 100 µM
- TGI (NCI-H23 lung): 71.7 µM
- TGI (OVCAR-3 ovarian): > 100 µM
- TGI (A549 NSCLC): > 100 µM
- TGI (HS 578T breast): > 100 µM
- TGI (SW-620 colon): > 100 µM
- TGI (UACC-257 melanoma): 51.1 µM
- TGI (SNB-19 CNS): > 100 µM
- TGI (786-0 renal): > 100 µM
- TGI (HOP-62 NSCLC): > 100 µM
- TGI (UACC-62 melanoma): 90 µM
